Laboratory results taken from patent US20100305214A1, “Use of a Monoterpene to Increase Tissue Repair” (Aisa Therapeutics, priority 2007, published 2010).

Experiments:
[1] = target: isoprenylation enzymes; conditions: cited from earlier work
[2] = system: skin inflammation; experiment: Mouse chronic skin inflammation model (TPA); format: in vivo; conditions: 10 mg/kg/day topical, 10 days
Protocol: 100 μl of a TPA solution were applied daily on the dorsal surfaces of mice during seven days (from J4 to J10) at a concentration of 0.2 mg/ml.
The daily topical treatment begun 3 days before the induction of skin inflammation (=Ji) and was continued 7 days after the induction of skin inflammation (=J10).
From J4 to J10, the assayed products were applied 30 minutes before the application of TPA on the same skin area.
The mice were anaesthetized by intraperitoneal injection of a mixture of Ketamine (Ketamine 1000, Virbac, Carros, France) and Xylazine (Rompun 2%, Bayer Healthcare, Kiel, Allemagne). (2/3-1/3 vol/vol) at a dosis of 8 ml/kg. Blood (1 ml) was punctured intracardiacally after the last treatment. Blood samples were stored at +4° C. during 20 to 30 minutes then centrifuged at 1500 g for 15 minutes. Serums were removed, freezed at −20° C. and stored at −80° C. until pro-inflammatory cytokines dosage.
Dorsal skin samples were removed, fixed and stored in formaldehyde (Rotr-Histofix 4%, Carl Roth, Karlsruhe, Allemagne) until histopathological analysis.
Kruskal-Wallis test followed possibly by the Mann-Whitney test was used to compare the different studied variables of the treated groups by comparison with the groups “Control” and “TPA+Control”. Significativity threshold was settled at P<0.05.

[3] = system: wound healing process; experiment: Healing after scarification of the skin in hairless Skh-1 mice; conditions: 10 mg/kg/day topical in maize oil, 8 days
Protocol: 6 female mice hairless Skh-1 with an average weight of 20-25 g were used.
Each mouse was submitted to a scarification of the skin on each flank.
The daily topical treatment begun 1 hour before the scarification and was continued 8 days after the scarification.
Daily observations and photographs were performed in order to follow the healing process.

[4] = system: colon inflammation; experiment: Preventive anti-inflammatory effects in a rat colitis model (TNBS); format: in vivo; conditions: for average lengths of the colons vs group TNBS/Control / microscopic score of the colons: 6 days after induction; for average macroscopic score of the colons (Mean ± ESM): colons removed 6 days after induction, n = 6; for rats average weights vs group TNBS/Control: J6
Protocol: Average macroscopic and microscopic scores of the colons sampled 6 days after the induction of colon inflammation were compared.
Colon inflammation was induced by a unique rectal administration of a 2,4,6-trinitrobenzen-sulfonic acid solution (TNBS, Fluka, France). TNBS was dissolved in 40° alcohol at a concentration of 50 mg/ml. Animals were anaesthetised intraperitoneally by 2 mg/kg of Calmivet (Vetoquinol, Lure, France) and 50 mg/kg of Ketamine (Ketamine 1000, Virbac, Carros, France). 0.4 ml of the TNBS solution was administered rectally and the rats were maintained during at least 30 minutes to avoid the releasing of the TNBS.
Kruskal-Wallis test followed possibly by the Mann-Whitney test was used to compare the different studied variables of the treated groups by comparison with the groups “Control” and “TNBS/Control”. Significativity threshold was settled at P<0.05.

[5] = at doses which may have clinical activity; cited from earlier work
[6] = system: repaired extensor tendon, wound contraction, epithelialization; conditions: in vivo; cited from earlier work

Molecule: C=C(C)[C@@H]1CC=C(CO)CC1 [Perillyl alcohol, (S)-4-Isopropenyl-1-cyclohexenylmethanol]
- IC50 values, isoprenylation enzymes [1]: low mM range
- average macroscopic score of skin inflammation vs group TPA+Limonene [2]: significantly lower
- average macroscopic scores of skin inflammation vs group TPA+control [2]: significantly lower
- average microscopic scores of skin inflammation vs group TPA+control [2]: significantly lower
- average serum level of IL-1β vs TPA+control group [2]: tendency to be significantly lower
- average serum level of IL-6 vs TPA+control group [2]: significantly lower
- average serum level of TNF-α vs TPA+control group [2]: significantly lower
- histopathological analysis of the skin samples [2]: skins were little inflammatory; showed non-specific inflammatory skin lesions without epidermis ulceration and with an inflammatory rarely marked
- Average serum levels of IL-1β (Mean ± ESM) ([2]; TPA-treated mice): 5.3 ± 1.7 pg/mL
- Average serum levels of IL-6 (Mean ± ESM) ([2]; TPA-treated mice): 13.0 ± 3.8 pg/mL
- Average serum levels of TNF-α (Mean ± ESM) ([2]; TPA-treated mice): 80.6 ± 24.7 pg/mL
- wound healing process in comparison with corn oil alone [3]: much better results
- wound healing process in comparison with limonene [3]: better results

Molecule: C=C(C)[C@H]1CC=C(C)CC1 [Limonene, (4R)-1-methyl-4-isopropenylcyclohex-1-ene]
- average macroscopic scores of the colons vs groups TNBS/Control and TNBS/Limonene 100 ([4]; 10 mg/kg daily oral): significantly lower
- average lengths of the colons vs group TNBS/Control ([4]; 10 mg/kg daily oral): significantly lower
- microscopic score of the colons ([4]; 10 mg/kg daily oral): 2
- average macroscopic score of the colons (Mean ± ESM) ([4]; 10 mg/kg daily oral): 6.5 ± 1.3
- average lengths of the colons vs group TNBS/Control ([4]; 100 mg/kg daily oral): significantly lower
- microscopic score of the colons ([4]; 100 mg/kg daily oral): 4
- average macroscopic score of the colons (Mean ± ESM) ([4]; 100 mg/kg daily oral): 10.7 ± 2.7
- rats average weights vs group TNBS/Control ([4]; Limonene 10 mg/kg daily oral): not significantly different
- rats average weights vs group TNBS/Control ([4]; Limonene 100 mg/kg daily oral): not significantly different
- circulating TNF-α level ([4]; at a concentration five times inferior to the concentrations of Ibuprofen): decreased
- post-inflammatory tissue repair, compared with ibuprofen ([4]; oral administration, colons sampled 6 days after induction): induced post-inflammatory tissue repair
- tolerance in cancer patients [5]: well tolerated
- inhibition of the isoprenylation enzymes [1]: weak inhibitors

Molecule: CC(C)Cc1ccc([C@H](C)C(=O)O)cc1 [Ibuprofen, (S)-(+)-Ibuprofen, reference compound]
- average macroscopic scores of the colons vs groups TNBS/Control and TNBS/Limonene 100 ([4]; 50 mg/kg daily oral): significantly lower
- average lengths of the colons vs group TNBS/Control ([4]; 50 mg/kg daily oral): significantly lower
- average macroscopic score of the colons (Mean ± ESM) ([4]; 50 mg/kg daily oral): 4.7 ± 2.7
- rats average weights vs group TNBS/Control ([4]; Ibuprofen 50 mg/kg daily oral): not significantly different
- breaking strength of the repaired extensor tendon, wound contraction, and epithelialization [6]: reduce

Molecule: C=C(C)[C@@H]1CC=C(C(=O)O)CC1 [perillic acid, reference compound]
- IC50 values, isoprenylation enzymes [1]: low mM range

Molecule: S-limonene [reference compound]
- inhibition of the isoprenylation enzymes [1]: weak inhibitors
